Laboratory results: patent US8759334B2, “Compounds useful for the treatment of metabolic and inflammatory diseases” (Galapagos NV, priority 2011, dated 2014)

How the values were obtained:
GPR43 [1] = molecular target: T1, GPR43 (Homo sapiens, UniProt O15552); assay: Calcium mobilization assay with probenecid; assay type: cell-based; details: GPR43 stably expressing cells; triggered with sodium acetate at EC80; 2.5 mM probenecid; read-out: GPR43 assay with probenicid IC50
T1 construct: expressed in transfected cells
T1 sequence (O15552 1-330): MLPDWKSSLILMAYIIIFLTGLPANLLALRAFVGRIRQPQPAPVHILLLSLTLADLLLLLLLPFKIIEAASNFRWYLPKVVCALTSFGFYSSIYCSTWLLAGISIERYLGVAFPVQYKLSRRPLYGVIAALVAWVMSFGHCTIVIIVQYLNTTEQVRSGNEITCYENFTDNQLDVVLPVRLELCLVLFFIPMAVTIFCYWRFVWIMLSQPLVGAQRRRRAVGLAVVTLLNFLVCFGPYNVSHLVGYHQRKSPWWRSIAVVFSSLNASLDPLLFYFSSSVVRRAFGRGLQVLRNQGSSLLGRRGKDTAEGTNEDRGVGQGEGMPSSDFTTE
Procedure, shortened: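 […] being added at rising concentrations to a GPR43 stable line. Before this, cells were dye-loaded (Calcium 4 with 2.5 mM probenecid) for 2 h at 37 °C after overnight plating.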

GPR43 [2] = molecular target: T1, GPR43; assay: Calcium mobilization assay without probenecid; assay type: cell-based; details: GPR43 stably expressing cells, triggered with sodium acetate at EC80, read-out: GPR43 assay without probenicid IC50
Procedure, shortened: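 In GPR43-expressing cells loaded with a Calcium 4 dye, antagonism was tested by a 15 min compound preincubation at 37 °C, then a sodium acetate challenge at EC80, with Ca-flux read on injection. For agonism, Ca-flux was recorded directly on compound injection.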

IC50 (GPR43 [1]) [nM]	IC50 (GPR43 [2]) [nM]	SMILES
> 1000	> 1000	CC1(C(=O)NCc2ccc(Cl)cc2)CCN1C(=O)Cc1csc2ccccc12 (centres unmarked) [Compound 57, 1-(2-Benzo[b]thiophen-3-yl-acetyl)-2-methyl-azetidine-2-carboxylic acid 4-chloro-benzylamide]
101 to 500	101 to 500	CCOC(=O)CN(Cc1ccc(Cl)cc1)C(=O)C1(C)CCN1C(=O)Cc1csc2ccccc12 (centres unmarked) [Compound 58, [[1-(2-Benzo[b]thiophen-3-yl-acetyl)-2-methyl-azetidine-2-carbonyl]-(4-chloro-benzyl)-amino]-acetic acid ethyl ester]
> 1000	> 1000	Cc1cc(C)cc(CC(=O)N2CCC2(C)C(=O)N(CC(=O)O)Cc2cccc(C)c2)c1 (centres unmarked) [Compound 59, [{1-[2-(3,5-Dimethyl-phenyl)-acetyl]-2-methyl-azetidine-2-carbonyl}-(3-methyl-benzyl)-amino]-acetic acid]
501 to 1000	> 1000	COC(=O)CN(Cc1cccc(Cl)c1)C(=O)C1(C)CCN1C(=O)Cc1csc2ccccc12 (centres unmarked) [Compound 60, [[1-(2-Benzo[b]thiophen-3-yl-acetyl)-2-methyl-azetidine-2-carbonyl]-(3-chloro-benzyl)-amino]acetic acid methyl ester]
101 to 500	101 to 500	COC(=O)CCCN(Cc1ccc(Cl)cc1)C(=O)C1(C)CCN1C(=O)Cc1cc(C)cc(C)c1 (centres unmarked) [Compound 63, 4-((4-Chloro-benzyl)-{1-[2-(3,5-dimethyl-phenyl)-acetyl]-2-methyl-azetidine-2-carbonyl}-amino)-butyric acid methyl ester]
501 to 1000	101 to 500	CC1(C(=O)N(CC(=O)O)Cc2cccc(Cl)c2)CCN1C(=O)Cc1csc2ccccc12 (centres unmarked) [Compound 66, [[1-(2-Benzo[b]thiophen-3-yl-acetyl)-2-methyl-azetidine-2-carbonyl]-(3-chloro-benzyl)-amino]-acetic acid]
101 to 500	101 to 500	Cc1cc(C)cc(CC(=O)N2CCC2(C)C(=O)N(CC#N)Cc2ccc(Cl)cc2)c1 (centres unmarked) [Compound 68, 1-[2-(3,5-dimethyl-phenyl)-acetyl]-2-methyl-azetidine-2-carboxylic acid (4-chloro-benzyl)-cyanomethyl-amide]
501 to 1000	> 1000	Cc1cccc(CN(CC(=O)O)C(=O)C2(C)CCN2C(=O)Cc2csc3ccccc23)c1 (centres unmarked) [Compound 69, [[1-(2-Benzo[b]thiophen-3-yl-acetyl)-2-methyl-azetidine-2-carbonyl]-(3-methyl-benzyl)-amino]-acetic acid]
501 to 1000	> 1000	Cc1cc(C)cc(CC(=O)N2CCC2(C)C(=O)N(CCC(N)=O)Cc2ccc(Cl)cc2)c1 (centres unmarked) [Compound 71, 1-[2-(3,5-Dimethyl-phenyl)-acetyl]-2-methyl-azetidine-2-carboxylic acid (2-carbamoyl-ethyl)-(4-chloro-benzyl)-amide]
101 to 500	501 to 1000	Cc1cc(C)cc(CC(=O)N2CCC2(C)C(=O)N(Cc2ccc(Cl)cc2)CC(C)O)c1 (centres unmarked) [Compound 72, 1-[2-(3,5-Dimethyl-phenyl)-acetyl]-2-methyl-azetidine-2-carboxylic acid (4-chloro-benzyl)-(2-hydroxy-propyl)-amide]
> 1000	> 1000	Cc1cc(C)cc(CC(=O)N2CCC2(C)C(=O)N(Cc2ccc(Cl)cc2)[C@H](C)C(=O)O)c1 (stereo partly drawn) [Compound 74, (R)-2-((4-Chloro-benzyl)-{1-[2-(3,5-dimethyl-phenyl)-acetyl]-2-methyl-azetidine-2-carbonyl}-amino)-propionic acid]
101 to 500	101 to 500	Cc1cc(C)cc(CC(=O)N2CCC2(C)C(=O)N(CC(N)=O)Cc2ccc(Cl)cc2)c1 (centres unmarked) [Compound 75, 1-[2-(3,5-Dimethyl-phenyl)-acetyl]-2-methyl-azetidine-2-carboxylic acid carbamoylmethyl-(4-chloro-benzyl)-amide]
101 to 500	> 1000	Cc1cc(C)cc(CC(=O)N2CCC2(C)C(=O)N(CCC#N)Cc2ccc(Cl)cc2)c1 (centres unmarked) [Compound 77, 1-[2-(3,5-Dimethyl-phenyl)-acetyl]-2-methyl-azetidine-2-carboxylic acid (4-chloro-benzyl)-(2-cyano-ethyl)-amide]
101 to 500	101 to 500	CC1(C(=O)N(CC(=O)O)Cc2ccc(Cl)cc2)CCN1C(=O)Cc1coc2ccccc12 (centres unmarked) [Compound 78, [[1-(2-Benzofuran-3-yl-acetyl)-2-methyl-azetidine-2-carbonyl]-(4-chloro-benzyl)-amino]-acetic acid]
> 1000	> 1000	CC1(C(=O)N(CC(=O)O)Cc2ccc(Cl)cc2)CCN1C(=O)Cc1noc2ccccc12 (centres unmarked) [Compound 79, [[1-(2-Benzo[d]isoxazol-3-yl-acetyl)-2-methyl-azetidine-2-carbonyl]-(4-chloro-benzyl)-amino]-acetic acid]
> 1000	> 1000	Cc1cc(C)cc(CC(=O)N2CCC2(C)C(=O)N(CC(=O)NC(C)C)Cc2ccc(Cl)cc2)c1 (centres unmarked) [Compound 80, 1-[2-(3,5-Dimethyl-phenyl)-acetyl]-2-methyl-azetidine-2-carboxylic acid (4-chloro-benzyl)-(isopropylcarbamoyl-methyl)-amide]
101 to 500	101 to 500	Cc1cc(C)cc(CC(=O)N2CC[C@]2(C)C(=O)N(CC(=O)O)Cc2ccc(Cl)cc2)c1 [Compound 82, ((4-Chloro-benzyl)-{(R)-1-[2-(3,5-dimethyl-phenyl)-acetyl]-2-methyl-azetidine-2-carbonyl}-amino)-acetic acid]
> 1000	> 1000	Cc1cc(C)cc(CC(=O)N2CCC2(C)C(=O)N(CC(=O)N2CCOCC2)Cc2ccc(Cl)cc2)c1 (centres unmarked) [Compound 83, 1-[2-(3,5-Dimethyl-phenyl)-acetyl]-2-methyl-azetidine-2-carboxylic acid (4-chloro-benzyl)-(2-morpholin-4-yl-2-oxo-ethyl)-amide]
101 to 500	101 to 500	CC1(C(=O)N(CC#N)Cc2ccc(Cl)cc2)CCN1C(=O)Cc1csc2ccccc12 (centres unmarked) [Compound 84, 1-(2-Benzo[b]thiophen-3-yl-acetyl)-2-methyl-azetidine-2-carboxylic acid (4-chloro-benzyl)-cyanomethyl-amide]
101 to 500	> 1000	O=C(O)CN(Cc1ccc(Cl)cc1)C(=O)C1(CO)CCN1C(=O)Cc1csc2ccccc12 (centres unmarked) [Compound 85, [[1-(2-Benzo[b]thiophen-3-yl-acetyl)-2-hydroxymethyl-azetidine-2-carbonyl]-(4-chloro-benzyl)-amino]-acetic acid]
0.01 to 100	101 to 500	COC(=O)CCN(Cc1ccc(Cl)cc1)C(=O)C1(C)CCN1C(=O)Cc1csc2ccccc12 (centres unmarked) [Compound 86, 3-[[1-(2-Benzo[b]thiophen-3-yl-acetyl)-2-methyl-azetidine-2-carbonyl]-(4-chloro-benzyl)-amino]-propionic acid methyl ester]
501 to 1000	501 to 1000	CCOC(=O)CCCN(Cc1ccc(Cl)cc1)C(=O)C1(C)CCN1C(=O)Cc1csc2ccccc12 (centres unmarked) [Compound 87, 4-[[1-(2-Benzo[b]thiophen-3-yl-acetyl)-2-methyl-azetidine-2-carbonyl]-(4-chloro-benzyl)-amino]-butyric acid ethyl ester]
101 to 500	101 to 500	CC1(C(=O)N(CCC(=O)O)Cc2ccc(Cl)cc2)CCN1C(=O)Cc1csc2ccccc12 (centres unmarked) [Compound 88, 3-[[1-(2-Benzo[b]thiophen-3-yl-acetyl)-2-methyl-azetidine-2-carbonyl]-(4-chloro-benzyl)-amino]-propionic acid]
> 1000	> 1000	CN(Cc1ccc(Cl)cc1)C(=O)C1(C)CCN1C(=O)Cc1cn(C)c2ccccc12 (centres unmarked) [Compound 91, 2-Methyl-1-[2-(1-methyl-1H-indol-3-yl)-acetyl]-azetidine-2-carboxylic acid (4-chloro-benzyl)-methyl-amide]
> 1000	> 1000	Cc1cc(C)cc(CC(=O)N2CCC2(C)C(=O)N(CC(=O)NS(=O)(=O)C(F)(F)F)Cc2ccc(Cl)cc2)c1 (centres unmarked) [Compound 94, 1-[2-(3,5-Dimethyl-phenyl)-acetyl]-2-methyl-azetidine-2-carboxylic acid (4-chloro-benzyl)-(2-oxo-2-trifluoromethanesulfonylamino-ethyl)-amide]
> 1000	501 to 1000	Cc1cc(C)cc(CC(=O)N2CCC2(C)C(=O)N(CC(=O)NS(C)(=O)=O)Cc2ccc(Cl)cc2)c1 (centres unmarked) [Compound 95, 1-[2-(3,5-Dimethyl-phenyl)-acetyl]-2-methyl-azetidine-2-carboxylic acid (4-chloro-benzyl)-(2-methanesulfonylamino-2-oxo-ethyl)-amide]
501 to 1000	101 to 500	Cc1cc(C)cc(CC(=O)N2CCC2(C)C(=O)N(CCCC#N)Cc2ccc(Cl)cc2)c1 (centres unmarked) [Compound 97, 1-[2-(3,5-Dimethyl-phenyl)-acetyl]-2-methyl-azetidine-2-carboxylic acid (4-chloro-benzyl)-(3-cyano-propyl)-amide]
101 to 500	101 to 500	CN(Cc1ccc(Cl)cc1)C(=O)C1(C)CCN1C(=O)c1csc2ccccc12 (centres unmarked) [Compound 98, 1-(Benzo[b]thiophene-3-carbonyl)-2-methyl-azetidine-2-carboxylic acid (4-chloro-benzyl)-methyl-amide]
